The results in this text go back to US9062041B2 (Bayer Intellectual Property GmbH, priority 2011, dated 2015).

Holding throughout (assay type): cell-based
For test [1], the target named is EP2 subtype of the human PGE2 receptor (Homo sapiens, UniProt P43116). In words: cAMP antagonism test on the human EP2 receptor (HTRF cAMP detection). The settings on record: hEP2 receptor, read-out: Antagonism hEP2 IC50. The method, boiled down:
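Cells expressing human EP2 preincubated 20 min at RT with compound (0.8 nM–16.5 μM), then stimulated 60 min with PGE2 (3× solution 1.5 nM) in PBS-IBMX. After 20 min lysis, cAMP measured by competitive HTRF with cAMP-d2 and Eu cryptate anti-cAMP antibody (665/620 nm ratio).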
On the technique in general: TR-FRET usually uses a lanthanide donor and a delayed reading to cut background.

The target of test [2] is EP4 subtype of the human PGE2 receptor (Homo sapiens, UniProt P35408). As to the kind of experiment: cAMP antagonism test on the human EP4 receptor (HTRF cAMP detection). The settings on record: selectivity towards hEP4, IC50 measured by cAMP antagonism test. In short, it runs like this:
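Cells expressing human EP4 preincubated 20 min at RT with compound (0.8 nM–16.5 μM), then stimulated with PGE2 (0.3 nM in 3× solution, with IBMX) 60 min at RT. After lysis, cAMP measured by HTRF competition (665/620 nm ratio); antagonism seen as rise in FRET signal.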

The target of another test is T1, human PGD receptor (Homo sapiens, UniProt Q13258).
T1 sequence (Q13258 1-359): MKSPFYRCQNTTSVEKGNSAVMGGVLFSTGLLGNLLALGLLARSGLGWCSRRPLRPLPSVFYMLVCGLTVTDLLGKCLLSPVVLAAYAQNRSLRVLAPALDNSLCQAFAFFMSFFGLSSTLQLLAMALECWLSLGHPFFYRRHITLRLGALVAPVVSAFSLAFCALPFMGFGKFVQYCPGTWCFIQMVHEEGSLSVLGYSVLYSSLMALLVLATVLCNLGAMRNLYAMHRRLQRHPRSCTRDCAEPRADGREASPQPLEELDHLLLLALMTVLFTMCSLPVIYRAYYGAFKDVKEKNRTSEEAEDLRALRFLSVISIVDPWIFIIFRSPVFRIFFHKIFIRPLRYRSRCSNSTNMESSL
As to the kind of experiment: cAMP antagonism test on the human prostaglandin D receptor (HTRF cAMP detection). Particulars: selectivity towards hDP, IC50 measured by cAMP antagonism test. The method, boiled down:
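Cells pre-mixed with cAMP-d2 were preincubated with compound (0.8 nM–16.5 μM) for 20 min at RT, then stimulated with 3× PGD2 solution (6 nM, in PBS-IBMX) for 30 min at RT. After lysis (20 min), HTRF read at 665/620 nm; antagonism seen as rise in FRET ratio.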

Structures are written as SMILES.

Chain of EP2 subtype of the human PGE2 receptor (P43116 whole entry): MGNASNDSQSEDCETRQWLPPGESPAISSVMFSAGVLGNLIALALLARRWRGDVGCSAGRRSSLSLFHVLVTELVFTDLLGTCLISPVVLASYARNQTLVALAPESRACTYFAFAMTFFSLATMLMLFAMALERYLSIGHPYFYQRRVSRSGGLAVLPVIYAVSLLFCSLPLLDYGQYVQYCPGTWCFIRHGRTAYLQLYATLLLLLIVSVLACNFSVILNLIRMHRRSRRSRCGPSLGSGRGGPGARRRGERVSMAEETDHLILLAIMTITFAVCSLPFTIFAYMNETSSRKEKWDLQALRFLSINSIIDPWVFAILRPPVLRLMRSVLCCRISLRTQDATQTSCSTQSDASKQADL
Chain of EP4 subtype of the human PGE2 receptor (P35408 whole entry): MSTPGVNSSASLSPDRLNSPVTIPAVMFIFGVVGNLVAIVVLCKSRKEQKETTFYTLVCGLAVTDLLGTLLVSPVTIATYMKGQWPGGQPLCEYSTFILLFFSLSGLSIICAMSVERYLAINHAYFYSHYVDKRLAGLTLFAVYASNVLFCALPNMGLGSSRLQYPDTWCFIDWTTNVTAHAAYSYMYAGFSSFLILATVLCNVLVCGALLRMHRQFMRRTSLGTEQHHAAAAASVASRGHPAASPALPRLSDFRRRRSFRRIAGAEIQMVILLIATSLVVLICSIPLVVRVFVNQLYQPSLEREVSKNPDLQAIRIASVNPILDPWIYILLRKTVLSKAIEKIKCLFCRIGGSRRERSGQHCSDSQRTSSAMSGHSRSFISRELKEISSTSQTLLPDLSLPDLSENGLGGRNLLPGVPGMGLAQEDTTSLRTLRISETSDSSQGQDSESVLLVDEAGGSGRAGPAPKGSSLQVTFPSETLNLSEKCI

What is called IC50 is the midpoint of a concentration-inhibition curve. For `COCCNC(=O)c1ccc2nn(CC3CCN(C(=O)c4ccc(OC(F)(F)F)cc4)CC3)cc2c1C` [Example 55, N-(2-methoxyethyl)-4-methyl-2-({1-[4-(trifluoromethoxy)benzoyl]piperidin-4-yl}methyl)-2H-indazol-5-carboxamide], in test [1], the IC50 was determined as 9.67 nM. In addition, the “Selectivity hEP2/hEP4” value in test [2] is given as “xxx (xxx > 100)”. Further, the “Selectivity hEP2/hDP” value at human PGD receptor is on record as “xxx (xxx > 100)”.

For the molecule `Cc1c(C(=O)NCC(F)(F)F)ccc2nn(CC3CN(C(=O)c4ccc(Oc5ccc(Cl)cc5)cc4)C3)cc12` [Example 165, 2-({1-[4-(4-chlorophenoxy)benzoyl]azetidin-3-yl}methyl)-4-methyl-N-(2,2,2-trifluoroethyl)-2H-indazol-5-carboxamide], the IC50 in test [1] was 33.4 nM. Also, in test [2], the “Selectivity hEP2/hEP4” value is reported as “xxx (xxx > 100)”. Moreover, the “Selectivity hEP2/hDP” value on human PGD receptor is recorded as “xxx (xxx > 100)”.

In the case of `Cc1c(C(=O)NCC2COCCO2)ccc2nn(CC3CCN(C(=O)c4ccc(Oc5ccc(C(F)(F)F)cc5)cc4)CC3)cc12` (single isomer, unassigned) [Example 419, (R or S)—N-(1,4-dioxan-2-ylmethyl)-4-methyl-2-[(1-{4-[4-(trifluoromethyl)-phenoxy]benzoyl}piperidin-4-yl)methyl]-2H-indazol-5-carboxamide], the IC50 in test [1] was determined as 10.9 nM. Besides, the “Selectivity hEP2/hEP4” value in test [2] is “xxx (xxx > 100)”. Further, at human PGD receptor, the “Selectivity hEP2/hDP” value is recorded as “xxx (xxx > 100)”.

Take `COCCNC(=O)c1ccc2nn(CC3CCN(C(=O)c4ccc(C(F)(F)F)cc4F)CC3)cc2c1OC` [Example 267, 2-({1-[2-fluoro-4-(trifluoromethyl)benzoyl]piperidin-4-yl}methyl)-4-methoxy-N-(2-methoxyethyl)-2H-indazol-5-carboxamide]: the IC50 in test [1] stood at 45.5 nM. For the same molecule, the “Selectivity hEP2/hEP4” value in test [2] is “xxx (xxx > 100)”. In addition, on human PGD receptor, the “Selectivity hEP2/hDP” value is “xxx (xxx > 100)”.

With `COCCNC(=O)c1cc2cn(CC3CN(C(=O)c4ccc(C(F)(F)F)cc4)C3)nc2cc1C` [Example 186, N-(2-methoxyethyl)-6-methyl-2-({1-[4-(trifluoromethyl)benzoyl]azetidin-3-yl}methyl)-2H-indazol-5-carboxamide], the IC50 in test [1] amounted to 51.9 nM. Also, the “Selectivity hEP2/hEP4” value in test [2] was “xxx (xxx > 100)”. For the same molecule, the “Selectivity hEP2/hDP” value on human PGD receptor is listed as “xxx (xxx > 100)”.

For the molecule `Cc1c(C(=O)NCC(C)OC2CCC2)ccc2nn(CC3CN(C(=O)c4ccc(Cl)cc4)C3)cc12` (single isomer, unassigned) [Example 155, (S or R)-2-{[1-(4-chlorobenzoyl)azetidin-3-yl]methyl}-N-[2-(cyclobutyloxy)-propyl]-4-methyl-2H-indazol-5-carboxamide], the IC50 in test [1] is 29.4 nM. Further, the “Selectivity hEP2/hEP4” value in test [2] is reported as “xxx (xxx > 100)”. The “Selectivity hEP2/hDP” value at human PGD receptor is given as “xxx (xxx > 100)”.

On to `Cc1ccc(C(=O)N2CCC(Cn3cc4c(C)c(C(=O)NCCOC(C)C)ccc4n3)CC2)cc1` [Example 97, N-(2-isopropoxy-ethyl)-4-methyl-2-{[1-(4-methyl-benzoyl)piperidin-4-yl]methyl}-2H-indazol-5-carboxamide], for which, in test [1], the IC50 is 12.7 nM. Further, the “Selectivity hEP2/hEP4” value in test [2] is reported as “xxx (xxx > 100)”. The “Selectivity hEP2/hDP” value at human PGD receptor is on record as “xxx (xxx > 100)”.

`Cc1cc2nn(CC3CN(C(=O)c4ccc(OC(F)(F)F)cc4)C3)cc2cc1C(=O)NCCSC(F)(F)F` [Example 194, 6-methyl-2-({1-[4-(trifluoromethoxy)benzoyl]azetidin-3-yl}methyl)-N-{2-[(trifluoromethyl)sulphanyl]ethyl}-2H-indazol-5-carboxamide]: the IC50 in test [1] amounted to 40.9 nM. Moreover, the “Selectivity hEP2/hEP4” value in test [2] is “xxx (xxx > 100)”. Moreover, the “Selectivity hEP2/hDP” value on human PGD receptor is “xxx (xxx > 100)”.

Turning to `COCCNC(=O)c1ccc2nn(CC3CCN(C(=O)c4ccc(Oc5ccc(OC)cc5)cc4)CC3)cc2c1C` [Example 18, N-(2-methoxyethyl)-2-({1-[4-(4-methoxy-phenoxy)benzoyl]-piperidin-4-yl}-methyl)-4-methyl-2H-indazol-5-carboxamide], the IC50 in test [1] was found to be 7.66 nM. Further, in test [2], the “Selectivity hEP2/hEP4” value is reported as “xxx (xxx > 100)”. For the same molecule, the “Selectivity hEP2/hDP” value at human PGD receptor is “xxx (xxx > 100)”.

As to `COCCNC(=O)c1ccc2nn(CC3CN(C(=O)c4ccc(-c5ccc(F)cc5)cc4)C3)cc2c1C` [Example 158, 2-({1-[(4′-fluorobiphenyl-4-yl)carbonyl]azetidin-3-yl}methyl)-N-(2-methoxy-ethyl)-4-methyl-2H-indazol-5-carboxamide], in test [1], the IC50 was 6.21 nM. The “Selectivity hEP2/hEP4” value in test [2] was “xxx (xxx > 100)”. In addition, on human PGD receptor, the “Selectivity hEP2/hDP” value is “xxx (xxx > 100)”.

Turning to `Cc1c(C(=O)NCCOCC(F)(F)F)ccc2nn(CC3CCN(C(=O)c4ccc(Oc5ccc(F)cc5)cc4)CC3)cc12` [Example 92, 2-({1-[4-(4-fluoro-phenoxy)benzoyl]-piperidin-4-yl}-methyl)-4-methyl-N-[2-(2,2,2-tri-fluoroethoxy)ethyl]-2H-indazol-5-carboxamide], the IC50 in test [1] is 12.7 nM. Moreover, in test [2], the “Selectivity hEP2/hEP4” value is on record as “xxx (xxx > 100)”. The “Selectivity hEP2/hDP” value on human PGD receptor is given as “xxx (xxx > 100)”.

With `Cc1c(C(=O)NCC2CCC2)ccc2nn(CC3CCN(C(=O)c4ccc(Cl)cc4)CC3)cc12` [Example 250, 2-{[1-(4-chlorobenzoyl)piperidin-4-yl]methyl}-N-(cyclobutylmethyl)-4-methyl-2H-indazol-5-carboxamide], the IC50 in test [1] came to 30.6 nM. For the same molecule, in test [2], the “Selectivity hEP2/hEP4” value is “xxx (xxx > 100)”. The “Selectivity hEP2/hDP” value at human PGD receptor is on record as “xxx (xxx > 100)”.

Turning to `COc1c(C(=O)NCCN2CCOCC2)ccc2nn(CC3CN(C(=O)c4ccc(Cl)cc4)C3)cc12` [Example 258, 2-{[1-(4-chlorobenzoyl)azetidin-3-yl]methyl}-4-methoxy-N-(2-morpholinoethyl)-2H-indazol-5-carboxamide], the IC50 in test [1] stood at 109 nM. In addition, the “Selectivity hEP2/hEP4” value in test [2] is listed as “xxx (xxx > 100)”. Also, the “Selectivity hEP2/hDP” value on human PGD receptor is on record as “xxx (xxx > 100)”.

On to `COCCNC(=O)c1ccc2nn(CC3CCN(C(=O)c4ccc(-n5cccn5)cc4)CC3)cc2c1C` [Example 38, N-(2-methoxyethyl)-4-methyl-2-({1-[4-(1H-pyrazol-1-yl)-benzoyl]piperidin-4-yl}methyl)-2H-indazol-5-carboxamide], for which the half-inhibitory concentration (IC50) in test [1] is 28.1 nM. The “Selectivity hEP2/hEP4” value in test [2] is recorded as “xxx (xxx > 100)”. For the same molecule, the “Selectivity hEP2/hDP” value on human PGD receptor was “xxx (xxx > 100)”.

On to `O=C(NCCOCC1CC1)c1ccc2nn(CC3CCN(C(=O)c4ccc(Cl)cc4)CC3)cc2c1OC(F)F` [Example 229, 2-{[1-(4-chlorobenzoyl)piperidin-4-yl]methyl}-N-[2-(cyclopropylmethoxy)-ethyl]-4-(difluoromethoxy)-2H-indazol-5-carboxamide], for which, in test [1], the IC50 worked out at 10.2 nM. Moreover, the “Selectivity hEP2/hEP4” value in test [2] is “xxx (xxx > 100)”. The “Selectivity hEP2/hDP” value at human PGD receptor is recorded as “xxx (xxx > 100)”.

For the molecule `Cc1c(C(=O)NCCN2CCOCC2)ccc2nn(CC3CCN(C(=O)c4ccc(-c5ccc(F)cc5)cc4)CC3)cc12` [Example 66, 2-({1-[(4′-fluoro-biphenyl-4-yl)-carbonyl]piperidin-4-yl}methyl)-4-methyl-N-(2-morpholino-ethyl)-2H-indazol-5-carboxamide], the IC50 in test [1] was 321 nM. The “Selectivity hEP2/hEP4” value in test [2] was “xx (xx: 10-100)”. Moreover, the “Selectivity hEP2/hDP” value on human PGD receptor is “xx (xx: 10-100)”.

For `Cc1c(C(=O)NCC(C)OCC2CC2)ccc2nn(CC3CCN(C(=O)c4ccc(Cl)cc4)CC3)cc12` (racemic) [Example 102, (+/−)-2-{[1-(4-chlorobenzoyl)piperidin-4-yl]methyl}-N-[2-(cyclopropylmethoxy)propyl]-4-methyl-2H-indazol-5-carboxamide], the IC50 in test [1] worked out at 410 nM. The “Selectivity hEP2/hEP4” value in test [2] is “xx (xx: 10-100)”. Besides, the “Selectivity hEP2/hDP” value at human PGD receptor is given as “xx (xx: 10-100)”.

As to `Cc1c(C(=O)NCC2CCCCO2)ccc2nn(CC3CCN(C(=O)c4ccc(Oc5ccc(C(F)(F)F)cc5)cc4)CC3)cc12` (single isomer, unassigned) [Example 417, (S or R)-4-methyl-N-(3,4,5,6-tetrahydro-2H-pyran-2-ylmethyl)-2-[(1-{4-[4-(trifluoromethyl)phenoxy]benzoyl}piperidin-4-yl)methyl]-2H-indazol-5-carboxamide], the IC50 in test [1] came to 9.75 nM. Besides, in test [2], the “Selectivity hEP2/hEP4” value was “xxx (xxx > 100)”. The “Selectivity hEP2/hDP” value on human PGD receptor was “xxx (xxx > 100)”.

Regarding `COCCNC(=O)c1ccc2nn(CC3CCN(C(=O)c4ccc(SC(F)(F)F)cc4)CC3)cc2c1OC` [Example 269, 4-methoxy-N-(2-methoxyethyl)-2-[(1-{4-[(trifluoromethyl)sulphanyl]benzoyl}-piperidin-4-yl)methyl]-2H-indazol-5-carboxamide], in test [1], the half-maximal inhibitory concentration (IC50) worked out at 7.54 nM. Further, the “Selectivity hEP2/hEP4” value in test [2] is recorded as “xxx (xxx > 100)”. Further, on human PGD receptor, the “Selectivity hEP2/hDP” value is listed as “xxx (xxx > 100)”.
